According to patent US10212936B2, “Molecules having pesticidal utility, and intermediates, compositions, and processes, related thereto” (priority 2014, dated 2019):

How the values were obtained:
Assay type in all cases: in vivo
[1] = test system: Beet Armyworm (Spodoptera exigua, LAPHEG); assay: Bioassay on Beet Armyworm (BAW), 128-well diet tray assay; details: 168 h, 50 μg/cm^2 on artificial diet, second instar larvae, five to seven days, 25° C., read-out: BAW % Control (or Mortality) rating
Method: (§1) Example A: Bioassays on Beet Armyworm (Spodoptera exigua, LAPHEG) (“BAW”), Corn Earworm (Helicoverpa zea, HELIZE) (“CEW”), and Cabbage Looper (Trichoplusia ni, TRIPNI) (“CL”)
(§2) Certain molecules disclosed in this document were tested against BAW, CEW, and CL using procedures described in the following examples. In the reporting of the results, the “BAW, CEW, & CL Rating Table” was used (See Table Section).
Bioassays on BAW were conducted using a 128-well diet tray assay. one to five second instar BAW larvae were placed in each well (3 mL) of the diet tray that had been previously filled with 1 mL of artificial diet to which 50 μg/cm^2 of the test molecule (dissolved in 50 μL of 90:10 acetone-water mixture) had been applied (to each of eight wells) and then allowed to dry. Trays were covered with a clear self-adhesive cover and held at 25° C., 14:10 light-dark for five to seven days. Percent mortality was recorded for the larvae in each well; activity in the eight wells was then averaged. The results are indicated in the table entitled “Table ABC: Biological Results” (See Table Section).

[2] = test system: Cabbage Looper (Trichoplusia ni, TRIPNI); assay: Bioassay on Cabbage Looper (CL), 128-well diet tray assay; details: 168 h, 50 μg/cm^2 on artificial diet, second instar larvae, five to seven days, 25° C., read-out: CL % Control (or Mortality) rating
Method: as §1, §2
Bioassays on CL were conducted using a 128-well diet tray assay. one to five second instar CL larvae were placed in each well (3 mL) of the diet tray that had been previously filled with 1 mL of artificial diet to which 50 μg/cm^2 of the test molecule (dissolved in 50 μL of 90:10 acetone-water mixture) had been applied (to each of eight wells) and then allowed to dry. Trays were covered with a clear self-adhesive cover and held at 25° C., 14:10 light-dark for five to seven days. Percent mortality was recorded for the larvae in each well; activity in the eight wells was then averaged. The results are indicated in the table entitled “Table ABC: Biological Results” (See Table Section).

[3] = test system: Corn Earworm (Helicoverpa zea, HELIZE); assay: Bioassay on Corn Earworm (CEW), 128-well diet tray assay; details: 168 h, 50 μg/cm^2 on artificial diet, second instar larvae, five to seven days, 25° C., read-out: CEW % Control (or Mortality) rating
Method: as §1, §2
Bioassays on CEW were conducted using a 128-well diet tray assay. one to five second instar CEW larvae were placed in each well (3 mL) of the diet tray that had been previously filled with 1 mL of artificial diet to which 50 μg/cm^2 of the test molecule (dissolved in 50 μL of 90:10 acetone-water mixture) had been applied (to each of eight wells) and then allowed to dry. Trays were covered with a clear self-adhesive cover, and held at 25° C., 14:10 light-dark for five to seven days. Percent mortality was recorded for the larvae in each well; activity in the eight wells was then averaged. The results are indicated in the table entitled “Table ABC: Biological Results” (See Table Section).

[4] = test system: Yellow Fever Mosquito (Aedes aegypti, AEDSAE); assay: Bioassay on Yellow Fever Mosquito (YFM) larvae, 96-well plate; details: about 1 day-old larvae, 4000 ppm DMSO master plate diluted, graded after 3 days
Method: Example C: Bioassays on Yellow Fever Mosquito (Aedes aegypti, AEDSAE) (“YFM”)
Certain molecules disclosed in this document were tested against YFM using procedures described in the following paragraph. In the reporting of the results, the “YFM Rating Table” was used (See Table Section).
Master plates containing 400 μg of a molecule dissolved in 100 μL of dimethyl sulfoxide (DMSO) (equivalent to a 4000 ppm solution) are used. A master plate of assembled molecules contains 15 μL per well. To this plate, 135 μL of a 90:10 water:acetone mixture is added to each well. A robot (Biomek® NXP Laboratory Automation Workstation) is programmed to dispense 15 μL aspirations from the master plate into an empty 96-well shallow plate (“daughter” plate). There are 6 reps (“daughter” plates) created per master. The created daughter plates are then immediately infested with YFM larvae.
The day before plates are to be treated, mosquito eggs are placed in Millipore water containing liver powder to begin hatching (4 g. into 400 mL). After the daughter plates are created using the robot, they are infested with 220 μL of the liver powder/larval mosquito mixture (about 1 day-old larvae). After plates are infested with mosquito larvae, a non-evaporative lid is used to cover the plate to reduce drying. Plates are held at room temperature for 3 days prior to grading. After 3 days, each well is observed and scored based on mortality. The results are indicated in the table entitled “Table ABC: Biological Results” (See Table Section).

SMILES | mortality at 50 µg/cm2 [1] [%] | mortality at 50 µg/cm2 [2] [%] | mortality at 50 µg/cm2 [3] [%] | YFM % Control (or Mortality) rating [4]
CC(C)c1ccccc1-n1ccnc1NC(=O)Nc1ccc(-c2ncn(-c3ccc(OC(F)(F)C(F)(F)F)cc3)n2)cc1 [F34, 1-(1-(2-isopropylphenyl)-1H-imidazol-2-yl)-3-(4-(1-(4-(perfluoroethoxy)phenyl)-1H-1,2,4-triazol-3-yl)phenyl)urea] | 50 to 100 | 50 to 100 | 50 to 100 | D (No activity noticed in this bioassay)
O=C(Nc1ccc(-c2ncn(-c3ccc(OC(F)(F)C(F)(F)F)cc3)n2)cc1)Nc1nccn1-c1cccc(Cl)c1 [F35, 1-(1-(3-Chlorophenyl)-1H-imidazol-2-yl)-3-(4-(1-(4-(perfluoroethoxy)phenyl)-1H-1,2,4-triazol-3-yl)phenyl)urea] | 50 to 100 | 50 to 100 | 50 to 100 | D (No activity noticed in this bioassay)
Cc1ccc(-c2nonc2NC(=O)Nc2ccc(-c3ncn(-c4ccc(OC(F)(F)F)cc4)n3)cc2)c(C)c1 [F36, 1-(4-(2,4-Dimethylphenyl)-1,2,5-oxadiazol-3-yl)-3-(4-(1-(4-(trifluoromethoxy)phenyl)-1H-1,2,4-triazol-3-yl)phenyl)urea] | 50 to 100 | 50 to 100 | 50 to 100 | A (80-100)
O=C(Nc1ccc(-c2ncn(-c3ccc(OC(F)(F)F)cc3)n2)cc1)Nc1nonc1-c1ccccc1 [F37, 1-(4-Phenyl-1,2,5-oxadiazol-3-yl)-3-(4-(1-(4-(trifluoromethoxy)phenyl)-1H-1,2,4-triazol-3-yl)phenyl)urea] | 50 to 100 | 50 to 100 | 50 to 100 | A (80-100)
COc1ccccc1-c1nonc1NC(=O)Nc1ccc(-c2ncn(-c3ccc(OC(F)(F)F)cc3)n2)cc1 [F38, 1-(4-(2-Methoxyphenyl)-1,2,5-oxadiazol-3-yl)-3-(4-(1-(4-(trifluoromethoxy)phenyl)-1H-1,2,4-triazol-3-yl)phenyl)urea] | 50 to 100 | 50 to 100 | 50 to 100 | A (80-100)
COc1ccc(-c2nonc2NC(=O)Nc2ccc(-c3ncn(-c4ccc(OC(F)(F)F)cc4)n3)cc2)cc1 [F39, 1-(4-(4-Methoxyphenyl)-1,2,5-oxadiazol-3-yl)-3-(4-(1-(4-(trifluoromethoxy)phenyl)-1H-1,2,4-triazol-3-yl)phenyl)urea] | 0 to 50 | 50 to 100 | 50 to 100 | D (No activity noticed in this bioassay)
Cc1cc(C)c(-c2nonc2NC(=O)Nc2ccc(-c3ncn(-c4ccc(OC(F)(F)F)cc4)n3)cc2)c(C)c1 [F40, 1-(4-Mesityl-1,2,5-oxadiazol-3-yl)-3-(4-(1-(4-(trifluoromethoxy)phenyl)-1H-1,2,4-triazol-3-yl)phenyl)urea] | 50 to 100 | 50 to 100 | 50 to 100 | B (More than 0-Less than 80)
COc1cccc(-c2nonc2NC(=O)Nc2ccc(-c3ncn(-c4ccc(OC(F)(F)F)cc4)n3)cc2)c1 [F41, 1-(4-(3-Methoxyphenyl)-1,2,5-oxadiazol-3-yl)-3-(4-(1-(4-(trifluoromethoxy)phenyl)-1H-1,2,4-triazol-3-yl)phenyl)urea] | 50 to 100 | 50 to 100 | 50 to 100 | B (More than 0-Less than 80)
O=C(Nc1ccc(-c2ncn(-c3ccc(OC(F)(F)F)cc3)n2)cc1)Nc1nonc1-c1c(Cl)cccc1Cl [F42, 1-(4-(2,6-Dichlorophenyl)-1,2,5-oxadiazol-3-yl)-3-(4-(1-(4-(trifluoromethoxy)phenyl)-1H-1,2,4-triazol-3-yl)phenyl)urea] | 50 to 100 | 50 to 100 | 50 to 100 | D (No activity noticed in this bioassay)
Cc1cc(Cl)ccc1-c1nonc1NC(=O)Nc1ccc(-c2ncn(-c3ccc(OC(F)(F)F)cc3)n2)cc1 [F43, 1-(4-(4-Chloro-2-methylphenyl)-1,2,5-oxadiazol-3-yl)-3-(4-(1-(4-(trifluoromethoxy)phenyl)-1H-1,2,4-triazol-3-yl)phenyl)urea] | 50 to 100 | 50 to 100 | 50 to 100 | A (80-100)
CCc1ccccc1-c1nonc1NC(=O)Nc1ccc(-c2ncn(-c3ccc(OC(F)(F)F)cc3)n2)cc1 [F44, 1-(4-(2-Ethylphenyl)-1,2,5-oxadiazol-3-yl)-3-(4-(1-(4-(trifluoromethoxy)phenyl)-1H-1,2,4-triazol-3-yl)phenyl)urea] | 50 to 100 | 50 to 100 | 50 to 100 | D (No activity noticed in this bioassay)
O=C(Nc1ccc(-c2ncn(-c3ccc(OC(F)(F)F)cc3)n2)cc1)Nc1nonc1-c1ccccc1OC(F)(F)F [F45, 1-(4-(2-(Trifluoromethoxy)phenyl)-1,2,5-oxadiazol-3-yl)-3-(4-(1-(4-(trifluoromethoxy)phenyl)-1H-1,2,4-triazol-3-yl)phenyl)urea] | 50 to 100 | 50 to 100 | 50 to 100 | A (80-100)
FC(F)(F)Oc1ccc(-n2cnc(-c3ccc(CCNC(=S)Nc4ccnn4-c4ccccc4)cc3)n2)cc1 [F65, 1-(1-phenyl-1H-pyrazol-5-yl)-3-(4-(1-(4-(trifluoromethoxy)phenyl)-1H-1,2,4-triazol-3-yl)phenethyl)thiourea] | 50 to 100 | 50 to 100 | 50 to 100 | A (80-100)
